Where two headings read alike, the source gives them in different places. No end group written: not given here.
Legend:
[1] = system: T2 or HLA-A0201 transfected C1Rs pulsed with peptide; test: IFNγ ELISpot assay; assay type: cell-based, human; conditions: number of donors responding out of 2; HLA-A02:01 peptides
Method: In some embodiments the immunogenicity is measured by measuring a protein or peptide expressed by the T cell, using ELISpot assay. Peptide-specific T cells are functionally enumerated using the ELISpot assay (BD Biosciences), which measures the release of IFNγ from T cells on a single cell basis. Target cells (T2 or HLA-A0201 transfected C1Rs) were pulsed with 10 μM peptide for one hour at 37 degrees C., and washed three times. 1×10^5 peptide-pulsed targets are co-cultured in the ELISPOT plate wells with varying concentrations of T cells (5×10^2 to 2×10^3) taken from the immunogenicity culture. Plates are developed according to the manufacturer's protocol, and analyzed on an ELISPOT reader (Cellular Technology Ltd.) with accompanying software. Spots corresponding to the number of IFN gamma-producing T cells are reported as the absolute number of spots per number of T cells plated. T cells expanded on modified peptides are tested not only for their ability to recognize targets pulsed with the modified peptide, but also for their ability to recognize targets pulsed with the parent peptide. Some exemplary data are shown below in Table 13.

HLA A02.01 [2] = molecular target: T1, HLA A02.01 (Homo sapiens, UniProt P04439, D140Y/D185E/D98H/E176V/E277Q/G131W/G231S/I119V/I121R/I166T/I218V/L300P/L318F/N151K/N90K/P208A/P217A/Q86G/Q94H/R138H/R169H/T345S); test: MHC-I peptide binding affinity assay (displacement of radiolabeled reference peptide)
Method: Likewise, ln(IC50) refers to the natural log of the IC50. […] Given the conditions in which the assays are run (i.e., limiting HLA protein and labeled reference peptide concentrations), these values approximate KD values. […] Alternatively, binding can be expressed relative to binding by a reference standard peptide. For example, can be based on its IC50, relative to the IC50 of a reference standard peptide.
(§6) In brief, MHCI complexes were prepared and bound to radiolabeled reference peptides. Peptides were incubated at varying concentrations with these complexes for 2 days, and the amount of remaining radiolabeled peptide bound to MHCI was measured using size exclusion gel-filtration.

HLA A02.01 [3] = molecular target: T1, HLA A02.01; test: MHC-I peptide binding stability assay (pMHC-I dissociation half-life); conditions: HLA allele A02.01
Method: (§1) Briefly, synthetic genes encoding biotinylated MHC-I heavy and light chains are expressed in E. coli and purified from inclusion bodies using standard methods. The light chain (β2m) is radio-labeled with iodine (1251), and combined with the purified MHC-I heavy chain and peptide of interest at 18° C. to initiate pMHC-I complex formation. These reactions are carried out in streptavidin coated microplates to bind the biotinylated MHC-I heavy chains to the surface and allow measurement of radiolabeled light chain to monitor complex formation. Dissociation is initiated by addition of higher concentrations of unlabeled light-chain and incubation at 37° C. Stability is defined as the length of time in hours it takes for half of the complexes to dissociate, as measured by scintillation counts.

HLA A01.01 [4] = molecular target: T2, HLA A01.01 (Homo sapiens, UniProt P04439, A114D/A174V/A182V/D101N/D185E/E176A/E190D/L180R/Q94H/R68K/S129P/T187R/V100A/V91M/W191G); test: as above; conditions: HLA allele A01.01
Method: as §1

HLA A01.01 [5] = molecular target: T2, HLA A01.01; test: MHC-I peptide binding affinity assay (displacement of radiolabeled reference peptide)
Text: (§2) 31:813 (1994). […] 149:1896 (1992)).

HLA A03.01 [6] = molecular target: T3, HLA A03.01 (Homo sapiens, UniProt P04439); test: MHC-I peptide binding stability assay (pMHC-I dissociation half-life); design: made in house; host or cells: E. coli; conditions: Table 10, BTK C481S peptides; HLA allele A03.01
Method: as §1

HLA A03.01 [7] = molecular target: T3, HLA A03.01; test: MHC-I peptide binding affinity assay (displacement of radiolabeled reference peptide); design: made in house; host or cells: E. coli; conditions: Table 10, BTK C481S peptides; HLA allele A03.01
Text: as §2

HLA A24.02 [8] = test: as above; design: species or system human; conditions: Table 11, EGFR T790M peptides; HLA allele A24.02
Text: as §2

HLA B08.01 = HLA B08.01 (Homo sapiens, UniProt P01889, A93T/A95T/D138N/E176V/E187T/K202T/Q94N/R180D/S35A/V36M/Y33D/Y91F); conditions: read-out: Affinity
Text: As used herein, the term “affinity” refers to a measure of the strength of binding between two members of a binding pair, for example, an HLA-binding peptide and a class I or II HLA. K D is the dissociation constant and has units of molarity. The affinity constant is the inverse of the dissociation constant. An affinity constant is sometimes used as a generic term to describe this chemical entity. It is a direct measure of the energy of binding. Affinity may be determined experimentally, for example by surface plasmon resonance (SPR) using commercially available Biacore SPR units. […] Likewise, ln(IC50) refers to the natural log of the IC50. Koff refers to the off-rate constant, for example, for dissociation of an HLA-binding peptide and a class I or II HLA. […] Given the conditions in which the assays are run (i.e., limiting HLA protein and labeled reference peptide concentrations), these values approximate KD values. […] Alternatively, binding can be expressed relative to binding by a reference standard peptide. For example, can be based on its IC50, relative to the IC50 of a reference standard peptide.
as §6

HLA A03.01 [9] = molecular target: T3, HLA A03.01; test: HLA-peptide elution and targeted MS/MS (PRM) presentation assay; assay type: cell-based; design: expressed in transfected cells; SW620 cells (lentiviral transduction)
Method: (§3) To assess whether antigens could be processed and presented from the larger polypeptide context, peptides eluted from HLA molecules isolated from cells expressing the genes of interest were analyzed by tandem mass spectrometry (MS/MS).
For analysis of presentation of RAS neoantigens, cell lines were utilized that have RAS mutations naturally or were lentivirally transduced to express the mutated RAS gene. HLA molecules were either isolated based on the natural expression of the cell lines or the cell lines were lentivirally transduced or transiently transfected to express the HLA of interest. […] Greater than 50 million cells expressing peptides encoded by a mutant RAS peptide were cultured and peptides were eluted from HLA-peptide complexes using an acid wash. Eluted peptides were then analyzed by targeted MS/MS with parallel reaction monitoring (PRM). […] Endogenous peptide spectrum is shown in the top panel and the corresponding stable heavy-isotopically labeled spectrum is shown in the bottom panel.

HLA B07.02 = HLA B07.02 (Homo sapiens, UniProt P01889); test: MHC-I peptide binding affinity assay (displacement of radiolabeled reference peptide); conditions: Table 11, EGFR T790M peptides; HLA allele B07.02
Text: as §2

[10] = system: MHC protein encoded by HLA-C03:03 allele; test: Identification of MHC-bound epitope by mass spectrometry; assay type: cell-based, human; conditions: MHC encoded by HLA-C03:03 allele
Text: (§4) In some embodiments, antigenic peptides comprising an epitope may be identified by mass spectrometry to be bound to an MHC encoded by an HLA.
(§5) Provided herein are KRAS epitopes each of which specifically can bind to the MHC protein encoded by the alleles indicated in right hand column in the same row of Table 1, that have been identified to bind to the MHC protein by mass spectrometry, and that each epitope is presented to T cells by association with the MHC protein in the respective right hand column for each row in Table 1.
as §3

[11] = system: MHC protein encoded by HLA-C03:04 allele; test: as above; assay type: cell-based, human; conditions: MHC encoded by HLA-C03:04 allele
Text: as §4, §5, §3

HLA A24.02 [12] = test: MHC-I peptide binding stability assay (pMHC-I dissociation half-life); design: species or system human; conditions: Table 11, EGFR T790M peptides; HLA allele A24.02
Method: as §1

HLA B08.02 = test: MHC-I peptide binding affinity assay (displacement of radiolabeled reference peptide); design: species or system human; conditions: Table 11, EGFR T790M peptides; HLA allele B08.02
Text: as §2

[13] = Table 11, EGFR T790M peptides, HLA allele A02.01, read-out: Affinity
[14] = Table 10, BTK C481S peptides, HLA allele A01.01, read-out: Affinity

LLANDLMLI
Immunogenicity (# donors/2) [1]: 2 # donors/2

CC[C@H](C)[C@H](NC(=O)[C@@H](N)CC(C)C)C(=O)N[C@@H](CCSC)C(=O)N[C@@H](CCC(N)=O)C(=O)N[C@@H](CC(C)C)C(=O)N[C@@H](CCSC)C(=O)N1CCC[C@H]1C(=O)N[C@@H](Cc1ccccc1)C(=O)NCC(=O)N[C@@H](CS)C(=O)O
IC50 (HLA A02.01 [2]; [13]): 132 nM
Stability (half-life (hr.)) (HLA A02.01 [3]; Table 11, EGFR T790M peptides): 22.88 min

FLGYLILGV
Immunogenicity (# donors/2) [1]: 1 # donors/2

YMANGSLLNY
Stability (half-life (hr.)) (HLA A01.01 [4]; Table 10, BTK C481S peptides): 51.97 min
IC50 (HLA A01.01 [5]; [14]): 13.2 nM
Stability (half-life (hr.)) (HLA A03.01 [6]): 16.75 min
IC50 (HLA A03.01 [7]): 95.9 nM

CC[C@H](C)[C@H](NC(=O)[C@H](CC(C)C)NC(=O)[C@H](CCC(N)=O)NC(=O)[C@@H](N)C(C)C)C(=O)N[C@@H](CCSC)C(=O)N[C@@H](CCC(N)=O)C(=O)N[C@@H](CC(C)C)C(=O)N[C@@H](CCSC)C(=O)N1CCC[C@H]1C(=O)N[C@@H](Cc1ccccc1)C(=O)O
IC50 (HLA A02.01 [2]; [13]): 4940 nM
IC50 (HLA A24.02 [8]): 4100 nM

IMQLMPFGC
IC50 (HLA A02.01 [2]; [13]): 1210 nM
Stability (half-life (hr.)) (HLA A02.01 [3]; Table 11, EGFR T790M peptides): 22.21 min

CSCC[C@H](NC(=O)[C@H](CCC(=O)O)NC(=O)[C@H](CCCNC(=N)N)NC(=O)[C@H](CC(C)C)NC(=O)[C@H](Cc1ccc(O)cc1)NC(=O)[C@H](CC(N)=O)NC(=O)[C@H](CC(C)C)NC(=O)[C@H](CC(C)C)NC(=O)[C@@H](N)CO)C(=O)O
Stability (half-life (hr.)) (HLA A02.01 [3]; Table 10, BTK C481S peptides): 182.6 min
IC50 (HLA B08.01): 960 nM

ILNDTGCHYV
Immunogenicity (# donors/2) [1]: 1 # donors/2

LTSTVQLIM
Stability (half-life (hr.)) (HLA A01.01 [4]; Table 11, EGFR T790M peptides): 6.222 min
IC50 (HLA A01.01 [5]; Table 11, EGFR T790M peptides, HLA allele A01.01, read-out: Affinity): 2890 nM

FQNSYTIGL
Immunogenicity (# donors/2) [1]: 2 # donors/2

FLTPKKLQCV
Immunogenicity (# donors/2) [1]: 1 # donors/2

STVQLIMQL
IC50 (HLA A02.01 [2]): 7260 nM

VVVGAVGVGK
HLA-eluted peptide detected by mass spectrometry (HLA A03.01 [9]; 293T cells lentivirally transduced with RAS G12V mutation and HLA-A*03:01 gene): detected
HLA-eluted peptide detected by mass spectrometry (HLA A03.01 [9]; SW620 cells naturally expressing RAS G12V, lentivirally transduced with HLA-A*03:01 gene): detected

CSCC[C@H](NC(=O)[C@H](CC(C)C)NC(=O)[C@H](CCC(N)=O)NC(=O)[C@@H](N)CCSC)C(=O)N1CCC[C@H]1C(=O)N[C@@H](Cc1ccccc1)C(=O)NCC(=O)N[C@@H](CS)C(=O)N[C@@H](CC(C)C)C(=O)N[C@@H](CC(C)C)C(=O)O
IC50 (HLA A02.01 [2]; [13]): 16.3 nM
IC50 (HLA A24.02 [8]): 18900 nM
Stability (half-life (hr.)) (HLA A02.01 [3]; Table 11, EGFR T790M peptides): 22.87 min

LLANGRMPTV
Immunogenicity (# donors/2) [1]: 2 # donors/2

FQYPEFSIEL
Immunogenicity (# donors/2) [1]: 1 # donors/2

CSCC[C@H](NC(=O)[C@H](CC(C)C)NC(=O)[C@H](CCC(N)=O)NC(=O)[C@@H](N)CCSC)C(=O)N1CCC[C@H]1C(=O)N[C@@H](Cc1ccccc1)C(=O)NCC(=O)N[C@@H](CS)C(=O)N[C@@H](CC(C)C)C(=O)O
IC50 (HLA A02.01 [2]; [13]): 116 nM
Stability (half-life (hr.)) (HLA A02.01 [3]; Table 11, EGFR T790M peptides): 22.1 min
IC50 (HLA B07.02): 1590 nM

GAVGVGKSA
binding to MHC protein, identified by mass spectrometry [10]: specifically binds

LIMQLMPFG
IC50 (HLA A02.01 [2]; [13]): 3340 nM

QLIMQLMPFG
IC50 (HLA A02.01 [2]; [13]): 5210 nM

GACGVGKSA
binding to MHC protein, identified by mass spectrometry [11]: specifically binds

CSCC[C@H](N)C(=O)N[C@@H](C)C(=O)N[C@@H](CC(N)=O)C(=O)NCC(=O)N[C@@H](CO)C(=O)N[C@@H](CC(C)C)C(=O)N[C@@H](CC(C)C)C(=O)N[C@@H](CC(N)=O)C(=O)N[C@@H](Cc1ccc(O)cc1)C(=O)O
Stability (half-life (hr.)) (HLA A01.01 [4]; Table 10, BTK C481S peptides): 12.98 min
IC50 (HLA A01.01 [5]; [14]): 439 nM
Stability (half-life (hr.)) (HLA A03.01 [6]): 14.3 min
IC50 (HLA A03.01 [7]): 35.6 nM

CC[C@H](C)[C@H](N)C(=O)N[C@@H](CCSC)C(=O)N[C@@H](CCC(N)=O)C(=O)N[C@@H](CC(C)C)C(=O)N[C@@H](CCSC)C(=O)N1CCC[C@H]1C(=O)N[C@@H](Cc1ccccc1)C(=O)NCC(=O)N[C@@H](CS)C(=O)N[C@@H](CC(C)C)C(=O)O
IC50 (HLA A02.01 [2]; [13]): 653 nM
IC50 (HLA A24.02 [8]): 14100 nM
Stability (half-life (hr.)) (HLA A02.01 [3]; Table 11, EGFR T790M peptides): 30.94 min

CC[C@H](C)[C@H](NC(=O)[C@H](CC(C)C)NC(=O)[C@H](CCC(N)=O)NC(=O)[C@@H](NC(=O)[C@@H](NC(=O)[C@H](CO)NC(=O)[C@@H](NC(=O)[C@H](CC(C)C)NC(=O)[C@@H](N)CS)[C@@H](C)O)[C@@H](C)O)C(C)C)C(=O)N[C@@H](CCSC)C(=O)O
IC50 (HLA A02.01 [2]): 537 nM
IC50 (HLA A01.01 [5]): 8280 nM

VLDCCISLL
Immunogenicity (# donors/2) [1]: 1 # donors/2

CC[C@H](C)[C@H](NC(=O)[C@H](CC(C)C)NC(=O)[C@@H](N)CCC(N)=O)C(=O)N[C@@H](CCSC)C(=O)N[C@@H](CCC(N)=O)C(=O)N[C@@H](CC(C)C)C(=O)N[C@@H](CCSC)C(=O)N1CCC[C@H]1C(=O)N[C@@H](Cc1ccccc1)C(=O)O
Stability (half-life (hr.)) (HLA A24.02 [12]): 22.12 min
IC50 (HLA A02.01 [2]; [13]): 193 nM
IC50 (HLA B08.02): 5590 nM
IC50 (HLA A24.02 [8]): 2030 nM
Stability (half-life (hr.)) (HLA A02.01 [3]; Table 11, EGFR T790M peptides): 20.44 min

RLIWLVKMV
Immunogenicity (# donors/2) [1]: 1 # donors/2
